Measurements taken from US20180078615A1, “USE OF CCL2 TO INHIBIT ABNORMAL UTERINE BLEEDING” (UNIVERSITY OF SOUTH FLORIDA, priority 2015, published 2018).

Tests used:
VSMCs [1] = assay: Transwell insert migration assay; assay type: cell-based, human; conditions: 12-h incubation, 10^−7 M; control 48.4%
Description: VSMCs (75,000 cells/200 μL) were suspended in M231 containing 1% charcoal striped FBS and either 0.1% ethanol (vehicle control) or the corresponding steroids and seeded onto insert wells (transwell filter with 12-μm pores; EMD Millipore). The inserts were then placed in 24-well plates containing 500 μL M231 with 1% charcoal striped FBS. After 12 h, cells remaining on the upper surface of the filter were removed with a cotton swab. Migrated cells were trypsinized, centrifuged, and resuspended in 200 μL of M231 medium. The cell suspensions were mixed with 200 μL 10% ethanol containing 0.4% Trypan blue dye and the live cell number was counted by Countess Automated Cell Counter (Invitrogen). See further details in SI Materials and Methods.
Cultured VSMCs were grown in T-75 cell culture flasks in M231 (Life Technologies) with smooth muscle growth supplement (Life Technologies) with 100 U/mL penicillin, 100 μg/mL streptomycin, 0.25 μg/mL fungizone. Confluent VSMCs were washed twice with 1×PBS to remove residual serum, and then trypsinized, resuspended (75,000 cells per 200 μL per well) in M231 with 1% charcoal striped FBS with 0.1% ethanol (vehicle, control), 10^−7 M MPA (Sigma-Aldrich), 10^−7 M ETO (Organon), or 10^−7 M P4 (Sigma-Aldrich)±rCCL2 (R&D Systems) and seeded on insert wells (transwell filter with 12-μm pores; EMD Millipore), which were then placed in 24-well plates containing 500 μL M231 with 1% charcoal striped FBS. After 12 h, cells remaining on the upper surface of the filter were removed with a cotton swab. Migrated cells attached to the lower surface of each insert or to the surface of lower wells were collected by trypsinization, followed by centrifugation and resuspension in 200 μL of M231 medium. The cell suspensions were mixed with 200 μL 10% ethanol containing 0.4% Trypan blue dye (selectively stains only dead cells blue, whereas live cells with intact cell membranes remain unstained) for 5 min. A mixture of 100 μL M231 and 100 μL 10% ethanol containing 0.4% Trypan blue dye was used as a negative control. To detect live cell numbers, 10 μL of final cell/Trypan blue dye suspension from each treatment condition was pipetted into Countess Cell Counting Chamber Slide and counted by using Countess Automated Cell Counter (Invitrogen). The counting procedure was performed in duplicate.

VSMCs [2] = assay: Whole genome microarray analysis (Illumina HumanHT-12 v4) of cultured VSMCs treated with progestins; assay type: cell-based, human; conditions: VSMCs treated by MPA
Description: Cultured VSMCs (n=3) treated with control medium or medium containing medroxyprogesterone acetate (MPA, 10^−7 M), or etonogestrel (ETO, 10^−7 M) were processed for whole genome analyses using Illumina Human microarray kit. After qRT-PCR confirmation of several up and down regulated genes from microarray data, Ingenuity Pathway Analysis (IPA) determined relevant upstream signaling of LAPC altered gene expression. To investigate the role of genes and relevant signaling molecules identified by IPA, VSMCs (n=3) treated with MPA or ETO±1 or 10 ng/ml recombinant CCL2 (rCCL2)±STAT1 inhibitor, 5′-methyl-thioadenosine (MTA, 100 μM) were analyzed by BrdU incorporation proliferation, TUNEL based ELISA apoptosis and Transwell insert migration assays.
VSMCs were thawed and cultured in medium 231 (M231; Life Technologies) with smooth muscle growth supplement (5% FBS; 2 ng/mL human basic fibroblast growth factor, 0.5 ng/mL human epidermal growth factor, 5 ng/mL heparin, 0.2 μg/mL insulin and 5 μg/mL BSA; Life Technologies) with 100 U/mL penicillin, 100 μg/mL streptomycin, 0.25 μg/mL fungizone. Confluent VSMCs were washed twice with 1×PBS to remove residual serum, passaged in 96-well or 6-well plates and incubated in parallel in M231 with 1% charcoal striped FBS with 0.1% ethanol (vehicle, control) or 10^−7 M MPA (Sigma-Aldrich) or 10^−7 M ETO (Organon) or 10^−7 M P4 (Sigma-Aldrich) for 15 min, 6, 48, and 72 h. VSMCs were then washed with ice-cold PBS and stored at −80° C. for further RNA and protein analyses.
Total RNA was isolated using Qiagen miRNeasy Mini Kit (Qiagen) and RNeasy MinElute Cleanup Kit (Qiagen). The quality of isolated RNAs was confirmed using an Agilent 2100 Bioanalyzer. Microarray analysis was limited to those specimens in which RNA Integrity Number exceeded 8. Microarray processes were performed in the Keck Biotechnology Resource Laboratory at Yale University (New Haven, Conn.) using Illumina Human HT-12 v4 BeadChip (Illumina). Raw data without normalization were analyzed by GeneSpring GX12.5 software (Agilent Technologies-Silicon Genetics). Normalization was performed as described (35). Genes with a fold-change >1.25 and a P value<0.05 were considered differentially expressed. Ingenuity Pathway Analysis (IPA) software (Qiagen) explored molecular and biological networks related to differentially expressed genes.

## CC(=O)O[C@]1(C(C)=O)CC[C@H]2[C@@H]3C[C@H](C)C4=CC(=O)CC[C@]4(C)[C@H]3CC[C@@]21C [MPA, medroxyprogesterone acetate]
VSMCs [1]
  migration rate: 18.7%
VSMCs [2]
  Fold-change, ABI gene family, member 3 (NESH) binding protein (ABI3BP): −2.045
  Fold-change, Actin, γ 2, smooth muscle, enteric (ACTG2): 2.761
  Fold-change, Alcohol dehydrogenase 1A (class I), α polypeptide (ADH1A): 2.49
  Fold-change, Bradykinin receptor B1 (BDKRB1): −2.041
  Fold-change, Chemokine (C-C motif) ligand 2 (CCL2): −4.123
  Fold-change, Collectin subfamily member 12 (COLEC12): −2.177
  Fold-change, Complement factor B (CFB): −3.17
  Fold-change, Complement factor D (adipsin) (CFD): 2.794
  Fold-change, Cysteine-rich secretory protein LCCL domain containing 2, (CRISPLD2): 3.721
  Fold-change, DNA-damage regulated autophagy modulator 1 (DRAM1): −2.149
  Fold-change, Decorin, transcript variant A2 (DiCN): 2.515
  Fold-change, EF-hand domain family, member D1 (EFHD1): 2.294
  Fold-change, Fibrillin 2 (FBN2): 2.642
  Fold-change, Filaggrin (FLG): −2.306
  Fold-change, Glutathione peroxidase 3 (plasma) (GPX3): 2.827
  Fold-change, H19, imprinted maternally expressed transcript noncoding RNA (H19): 5.441
  Fold-change, Hypothetical protein FLJ40504 (FLJ40504): −2.331
  Fold-change, Indolethylamine N-methyltransferase (INMT): 2.187
  Fold-change, Insulin-like growth factor binding protein 2, 36 kDa (IGFBP2): 2.367
  Fold-change, Interleukin 1, β (IL1B): −2.325
  Fold-change, LY6/PLAUR domain containing 1, transcript variant 1 (LYPD1): −2.21
  Fold-change, Latexin (LXN): −2.939
  Fold-change, Leptin (obesity homolog, mouse) (LEP): 4.042
  Fold-change, Matrix Gla protein, transcript variant 1 (MGP): 3.615
  Fold-change, Matrix Gla protein, transcript variant 2 (MGP): 3.221
  Fold-change, Natriuretic peptide precursor B (NPPB): −2.371
  Fold-change, PREDICTED: keratin 18 pseudogene 13 (KRT18P13): −2.209
  Fold-change, PREDICTED: similar to LYPDC1 protein (LOC100134073): −2.401
  Fold-change, Pleckstrin homology-like domain, family A, member 1 (PHLDA1): −2.17
  Fold-change, Potassium voltage-gated channel, shaker-related subfamily, 0 member 1, transcript variant2 (KCNAB1): −2.055
  Fold-change, Prostaglandin-endoperoxide synthase 1, transcript variant 2 (PTGS1): 2.437
  Fold-change, Retinoic acid receptor responder (tazarotene induced) 1, transcript variant 1, (RARRES1): −4.061
  Fold-change, Retinoic acid receptor responder (tazarotene induced) 1, transcript variant 2, (RARRES1): −2.994
  Fold-change, Superoxide dismutase 2, mitochondrial, transcript variant 2, (SOD2): −2.208
  Fold-change, Sushi domain containing 2 (SUSD2): 2.901
  Fold-change, Transmembrane protein 119 (TMEM119): 2.258
  Fold-change, UDP-N-acetyl-alpha-D-galactosamine:polypeptide N-acetylgalactosaminyltransferase 12 (GALNT12): −2
  Fold-change, Wingless-type MMTV integration site family, member 5A (WNT5A): 2.218
VSMCs [2]; table entry 11
  Fold-change, Collagen, type VIII, α 1, transcript variant 2 (COL8A1): 2.628
VSMCs [2]; table entry 14
  Fold-change, Collagen, type VIII, alpha 1, transcript variant 2 (COL8A1): 2.439
